Here are results for six molecules from PMC11767451, “Novel Approaches to Monitor Pharmacokinetics and Metabolism of Gemcitabine-Ibandronate Conjugate in Mice and Dogs” (Molecules, 2025).

Usually Tmax stands for the time at which the peak concentration occurs. As a reminder, the Cmax is the peak of the concentration-time curve. By AUC is commonly meant the area under the concentration-time curve, a measure of exposure.

Like-named read-outs stand apart in the source and are kept apart here.

The data set in a line: Proof-of-concept mouse PK study, plasma levels of GEM-IB and metabolites by HPLC-MS/MS. Conditions: for Cmax: analyte = parent or metabolite; for AUC: over the observation period. In kind it is in vivo, mice. The protocol: Assay A (GEM-IB and IB): The extraction of calibration standards, quality control samples, and PK study samples was identical. Plasma, quality control stocks, and calibrator stocks were removed from the storage freezer and kept at room temperature until fully thawed. Aliquots of 100 μL of standards/quality control or blank sample were transferred into a 1.5 mL low-binding polypropylene vial with a conical bottom and snap-on lid. An amount of 10 µL of the of the internal standard solution (15 and 10 µg/mL of IB-D3 and ATP-IS, respectively) was added and mixed. For protein precipitation, 50 μL of methanol was added and then samples were vortexed for 10 min. This was followed by centrifugation at 25,000× g for ten minutes at 4 °C (Thermo Scientific MR 23i Centrifuge, Thermo Scientific, Waltham, MA, USA). To remove remaining protein, the supernatant was transferred to 10,000 molecular weight cut off (MWCO) centrifugal filters (800 µL volume, PES 10,000 with 2.0 mL receiver tubes, Analytical Sales and Services, Flanders, NJ, USA) and centrifuged again at 25,000× g for ten minutes at 4 °C. The filtrate was transferred into HPLC vials and placed into the HPLC autosampler maintained at 4 °C.
Assay B (GEMMP, GEM dFdUMP and dFdU): The extraction of calibration standards and quality control samples was identical to that of study samples. An amount of 200 µL of plasma sample was added to a 1.5 mL snap-top Eppendorf tube with 100 µL of protein precipitation solution. The samples were then vortexed for five minutes followed by centrifugation at 25,000× g for ten minutes at 4 °C. Hereafter, supernatants were transferred to 10K Amicon centrifugal filters (Merck-Millipore, Burlington, MA, USA) and centrifuged at the same settings for 60 min. The filtrates were then transferred into HPLC vials for analysis.
Assay A (GEM-IB and IB): Quantification of the analytes was carried out using high-performance liquid chromatography–tandem mass spectrometry (HPLC-MS/MS). Chromatography was performed using an Agilent 1260 Infinity II bio-inert HPLC system (Agilent Technologies, Santa Clara, CA, USA) on a Hypercarb Porous Graphitic Carbon HPLC column (3 µm, 2.1 × 50 mm, Thermo Scientific, Waltham, MA, USA). The HPLC system consisted of an Agilent 1260 Infinity II bio-inert quaternary pump, an Agilent 1260 Infinity II bio-inert column oven, and an Agilent 1260 Infinity II bio-inert autosampler (Agilent Technologies, Santa Clara, CA, USA). An amount of 10 µL of the sample extracts was injected. The column was maintained at 22 °C. HPLC-MS-grade water supplemented with 10 mM hexafluoroisopropanol (HFIP) and 0.05% (v/v) diethyl amine (DEA) at pH 9.4 was used for the aqueous mobile phase (Buffer A) and HPLC-grade acetonitrile was used for the organic mobile phase (Buffer B). The flow rate was set to 400 µL/min throughout the assay. The initial settings were 98% Buffer A and 2% organic Buffer B for the first two minutes. During the following 0.7 min, the organic Buffer B was increased to 30%. At minute 3.5, the gradient reached 98% Buffer B, which was kept for 0.5 min, and at minute 4.2 the column was re-equilibrated to starting conditions for 2.8 min until the next injection. The HPLC system was connected to a Sciex a 5500+ triple quadrupole mass spectrometer (SCIEX, Concord, ON, Canada) via a turbo electrospray ionization source (SCIEX) operated in the negative electrospray ionization (ESI) mode. Data were acquired in negative multiple reaction monitoring (MRM) mode and all compounds were detected as [M–H ]^−. The ion transitions used during the multiple reaction monitoring mode were m/z = 318→236, 321→239, 643→342, and 521→79 for IB, IB-D3, GEM-IB, and adenosine-^13C10,^15N5 5′-triphosphate (^13C10-^15N5-ATP), respectively. The dwell time for analysis was set to 50 ms. The curtain gas was kept at 20 psi and the ion source gas at 55 psi. The ion spray voltage was −4500 volts, and the temperature of the ion source was set to 400 °C. […]

Setting [1] is: ip, after GEM-IB 5 mg/kg i.p., read-out: Tmax.
[2] abbreviates: mouse, plasma, ip, 5 mg/kg, after GEM-IB 5 mg/kg i.p., read-out: T1/2 (converted).
The mark [3] stands for this setting: mouse, plasma, ip, 5 mg/kg, after GEM-IB 5 mg/kg i.p., read-out: AUC.
Setting [4] is: mouse, plasma, ip, 5 mg/kg, after i.p. injection of GEM-IB 5 mg/kg, read-out: half-life.

`Nc1ccn([C@@H]2O[C@H](CO)[C@@H](O)C2(F)F)c(=O)n1` [GEM, gemcitabine]: for the setting “after GEM-IB 5 mg/kg i.p.”, the “Rate Constant” value was found to be 1.5 h⁻¹, the T1/2 was determined as 26.9 min and the Tmax was determined as 4.98 min. Moreover, under “ip, after GEM-IB 5 mg/kg i.p.”, the Cmax came to 2120 ng/mL.

Turning to `O=c1ccn([C@@H]2O[C@H](CO)[C@@H](O)C2(F)F)c(=O)[nH]1` [dFdU, 2′,2′-difluoro-2′-deoxyuridine], the “Rate Constant” value (after GEM-IB 5 mg/kg i.p.) was found to be 0.4 h⁻¹. The Cmax (ip, after GEM-IB 5 mg/kg i.p.) is 832 ng/mL. Under setting [1], the Tmax was determined as 60 min. In addition, the half-life under setting [2] is 108 min.

Consider `O=c1ccn([C@@H]2O[C@H](COP(=O)(O)O)[C@@H](O)C2(F)F)c(=O)[nH]1` [dFdUMP, 2′,2′-difluoro-2′-deoxyuridine-5′-phosphate], for which, under “after GEM-IB 5 mg/kg i.p.”, the “Rate Constant” value is 11.1 h⁻¹ and the exposure (AUC) amounted to 38 ng·h/mL. In addition, for the setting “after GEM-IB 5 mg/kg i.p., listed as dFdU-MP”, the AUC turned out to be 3389 ng·h/mL. Also, the Cmax (ip, after GEM-IB 5 mg/kg i.p.) worked out at 130 ng/mL. The Tmax under setting [1] was 4.98 min. In addition, under setting [2], the half-life was 3.78 min.

For `CCCCCN(C)CCC(O)(P(=O)(O)O)P(=O)(O)O` [IB, ibandronate], the “Rate Constant” value (after GEM-IB 5 mg/kg i.p.) amounted to 2.6 h⁻¹. For the same molecule, the Cmax (ip, after GEM-IB 5 mg/kg i.p.) amounted to 22800 ng/mL. The Tmax under setting [1] came to 4.98 min. For the same molecule, the AUC under setting [3] worked out at 10700 ng·h/mL. Also, the half-life reads like this: under setting [2], 16.1 min; under setting [4], 16 min.

With `Nc1ccn([C@@H]2O[C@H](COP(=O)(O)O)[C@@H](O)C2(F)F)c(=O)n1` [GEMMP, gemcitabine-5′-phosphate], the “Rate Constant” value (after GEM-IB 5 mg/kg i.p.) was found to be 4.0 h⁻¹. In addition, the Cmax (ip, after GEM-IB 5 mg/kg i.p.) is 1310 ng/mL. Further, under setting [1], the Tmax stood at 4.98 min. For the same molecule, the AUC under setting [3] came to 405 ng·h/mL. Besides, the half-life under setting [2] is 10.3 min.

For the molecule `CCCCCN(C)CCC(O)(P(=O)(O)O)P(=O)(O)OP(=O)(O)OC[C@H]1O[C@@H](n2ccc(N)nc2=O)C(F)(F)[C@@H]1O` (stereo partly drawn) [GEM-IB], for the setting “after GEM-IB 5 mg/kg i.p.”, the CL was 65.65 mL/min/kg, the “Rate Constant” value is 5.0 h⁻¹ and the Vdss is 0.469 L/kg. Further, the Cmax (ip, after GEM-IB 5 mg/kg i.p.) was 4180 ng/mL. Moreover, the Tmax under setting [1] stood at 4.98 min. Also, the AUC under setting [3] amounted to 1280 ng·h/mL. Under setting [2], the half-life is 8.28 min. The half-life under setting [4] was found to be 8 min.
